“And” between values parts separate entries of the source, which are not always exact repeats. Equal values may be shown once.
Tested on: healthy adults
Assay: Phase 1 pharmacodynamics by echocardiography (LVEF), SAD and MAD cohorts
Assay type: in vivo, human
Procedure: Echocardiography. For PD assessments of LVEF, echocardiograms for the SAD and MAD cohorts were interpreted by the echocardiography core laboratory and used for all data analysis and dose level review decisions while immediate local interpretation of the echocardiograms was performed for safety monitoring. […] Echocardiograms on day 3 (48 h after dosing) were obtained only if the 24 h LVEF had not returned to near or above baseline, as determined by the investigator. In the MAD cohorts, echocardiograms were obtained on day −1, pre-dose on day 1, and at 1.5 h post dose on days 2, 4, and 9, and at 1.5, 24, and 72 h post dose on day 14 (for the 5-mg and 10-mg cohorts) or on day 17 (for the 7.5-mg cohort). Echocardiograms were obtained 3 days after the last dose (on day 17 or 20) only if the participant's prior LVEF was not near or above baseline, as determined by the investigator.
All participants who received ≥1 dose of study drug and had ≥1 pre-dose and ≥1 post-dose echocardiographic measurement were included in the PD analysis set. […] Descriptive statistics of the echocardiographic parameters were generated using SAS® Version 9.3 or higher.
Dose-response analysis was performed using analysis of covariance (ANCOVA) to identify the least-squares mean difference (aficamten minus placebo). To analyze the impact of drug dose on echocardiographic parameters in the SAD and MAD cohorts, an inferential analysis was conducted on the PD analysis set using linear mixed models for repeated-measures analysis of covariance (ANCOVA). The ANCOVA used baseline value as a covariate, included treatment, time-point, and time-point-by-treatment interaction as fixed effects, and change from baseline as the dependent variable. The unstructured variance-covariance structure was used, and the model accounted for the time-point repeated measures. The ANCOVA analysis was conducted separately for each study part and for each PD parameter. The least-squares means, the difference in least squares means (active minus placebo), and the associated 2-sided 95% CIs were presented for each comparison.
Analyses of concentration ‘bin’ and exposure-response were also performed using ANCOVA. SAS® PROC MIXED was used for all comparative analyses. […] A concentration bin ANCOVA was conducted using linear mixed models for repeated-measures analyses with concentration bin group as a fixed effect, baseline PD parameters as a covariate, change from baseline as the dependent variable, and a random intercept to adjust for the repeated measures. The unstructured variance-covariance structure was used. […] The ANCOVA compared the change in PD parameters between each bin versus the pooled placebo group. The least-squares means, the difference in least squares means (bin group minus placebo), and the associated 2-sided 95% CIs were presented for each comparison. The ANCOVA analysis was conducted separately for each study part. For all time-points at which both PK data and PD measures were available, the time-points were pooled for the analysis. […] From least to greatest, the data were then divided into 5 groups of observations (‘bins’), each consisting of 20% of the data points. Each bin was treated as a separate group.
The above analysis was then repeated using concentration as a continuous variable to estimate the exposure-response trend. Both a random intercept effect and a random concentration effect were added to the ANCOVA. The estimate of the concentration slope, with corresponding 2-sided 95% CIs, and the ANCOVA analyses were presented for each study part.
For all time-points at which both PK data and PD measures were available, the time points were pooled for the analysis. A nominal significance level of 5% was used for statistical comparisons, without adjustment for multiplicity.

[1] = SAD 50 mg (n = 11), […] post dose

CCc1nc(-c2ccc3c(c2)CC[C@H]3NC(=O)c2cnn(C)c2)no1 [aficamten, (R)—N-(5-(5-ethyl-1,2,4-oxadiazol-3-yl)-2,3-dihydro-1H-inden-1-yl)-1-methyl-1H-pyrazole-4-carboxamide]
Participants with absolute reductions in LVEF of ≥10% from baseline (10-mg MAD cohort): 33%
Participants with absolute reduction in LVEF ≥5% from baseline (MAD 7.5 mg once daily, 1 of 6): 17%
Participants with absolute reduction in LVEF ≥5% from baseline (MAD 10 mg once daily, 2 of 6): 33%
Number of participants with reduction in LVEF ≥10% (MAD 10-mg cohort): 2
Plasma aficamten concentrations with minimal suppression of LVEF in most participants (MAD cohorts): ≤ 180 ng/mL
A, mean change from baseline [1]: 2.5 cm/s
E, mean change from baseline [1]: -2.7 cm/s
LV ET, mean change from baseline [1]: 1.9 ms
Participants with absolute reduction in LVEF ≥5% from baseline (SAD 1-, 10-, or 25-mg cohorts): no participants
Participants with absolute reduction in LVEF ≥5% from baseline (SAD 3-mg cohort, 1 of 6): 17%
Participants with absolute reduction in LVEF ≥10% (SAD 40-mg cohort, 1 of 6): 17%
Participants with absolute reduction in LVEF ≥5% from baseline (SAD 40-mg cohort, 2 of 6): 33%
Participants with reduction in LVEF to <50% (SAD 50-mg cohort, 2 of 11): 18%
Participants with absolute reduction in LVEF ≥5% from baseline (SAD 50-mg cohort, 7 of 11): 64%
LVEF of the individual participants with LVEF <50% (SAD 50-mg cohort, core laboratory assessment): 48.2% and 45.5%
Participants with absolute reduction in LVEF ≥5% from baseline (SAD 75-mg cohort, 1 of 1): 100%
Participants with reduction in LVEF to <50% (SAD 75-mg cohort, 1 of 1): 100%
Participants with absolute reduction in LVEF ≥10% (SAD 75-mg cohort, 1 participant): 100%
Reduction in LVEF to <50% (any MAD cohort, core laboratory assessment): not observed
Time within which decreases in LVEF to <50% were reversible (following single doses): ≤ 6 h
Decrease in mean LVEF from baseline, least-squares mean difference vs placebo (single 50-mg dose, […] post dose, p=0.0001): 5.5%
LVEF reached by 1 participant (single dose of 75 mg, approximately […] after dosing): 34.1%

Reference: patent US20250177357A1, “METHODS FOR TREATING HYPERTROPHIC CARDIOMYOPATHY” (priority 2021, published 2025)
